Like-named read-outs stand apart in the source and are kept apart here.
Tests used:
BSA = target: T1, BSA (Bos taurus, UniProt P02769); design: Intact protein LC/MS covalent labelling, fragments in pools of five, 200 uM each, 4 °C; conditions: 24 h, 4 °C, pool of five; 200 µM; covalent
T1 construct: gene ALB

NNMT (hNNMT) = target: T2, NNMT (hNNMT) (Homo sapiens, UniProt P40261); design: Intact protein LC/MS covalent labelling, fragments in pools of five, 200 uM each, 4 °C; conditions: 24 h, 4 °C, pool of five; 200 µM; covalent
T2 construct: wild type, N-terminal His6 tag kept (no cleavage described), E. coli, construct 31248 Da
T2 sequence (P40261 1-264): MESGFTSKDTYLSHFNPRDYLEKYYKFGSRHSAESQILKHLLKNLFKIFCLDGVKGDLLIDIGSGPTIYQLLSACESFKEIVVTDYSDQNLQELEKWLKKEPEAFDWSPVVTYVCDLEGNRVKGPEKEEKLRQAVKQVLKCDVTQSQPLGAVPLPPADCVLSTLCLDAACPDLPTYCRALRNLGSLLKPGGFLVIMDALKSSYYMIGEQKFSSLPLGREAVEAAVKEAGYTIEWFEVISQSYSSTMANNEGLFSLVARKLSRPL

NUDT7 = target: T3, NUDT7 (Homo sapiens, UniProt P0C024); design: Intact protein LC/MS covalent labelling, fragments in pools of five, 200 uM each, 4 °C; conditions: 24 h, 4 °C, pool of five; 200 µM; covalent
T3 construct: residues 14-235, E. coli, pNIC28-Bsa4, N-terminal His6 tag removed by TEV, construct 26672 Da
T3 sequence (P0C024 14-235): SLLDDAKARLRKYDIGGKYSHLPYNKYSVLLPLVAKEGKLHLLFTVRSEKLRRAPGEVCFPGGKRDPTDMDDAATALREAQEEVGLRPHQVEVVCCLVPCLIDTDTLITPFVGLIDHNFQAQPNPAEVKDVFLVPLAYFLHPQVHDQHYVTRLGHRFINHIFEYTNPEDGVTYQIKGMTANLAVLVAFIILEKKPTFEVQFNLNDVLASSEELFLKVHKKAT

OTUB2 (OTUB2A) = target: T4, OTUB2 (OTUB2A) (Homo sapiens, UniProt Q96DC9); design: Intact protein LC/MS covalent labelling, fragments in pools of five, 200 uM each, 4 °C; conditions: 24 h, 4 °C, pool of five; 200 µM; covalent
T4 construct: full length residues 1-234, E. coli BL21(DE3)-R3, His tag removed by TEV, construct 27312 Da
T4 sequence (Q96DC9 1-234): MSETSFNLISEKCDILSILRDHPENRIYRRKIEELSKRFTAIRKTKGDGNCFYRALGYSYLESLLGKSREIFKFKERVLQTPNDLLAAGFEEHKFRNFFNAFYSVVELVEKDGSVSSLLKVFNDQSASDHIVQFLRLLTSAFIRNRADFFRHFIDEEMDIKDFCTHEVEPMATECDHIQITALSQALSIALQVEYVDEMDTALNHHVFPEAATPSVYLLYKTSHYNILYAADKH

PCAF = target: T5, PCAF (Homo sapiens, UniProt Q92831); design: Intact protein LC/MS covalent labelling, fragments in pools of five, 200 uM each, 4 °C; conditions: 24 h, 4 °C, pool of five; 200 µM; covalent
T5 construct: gene KAT2B
T5 sequence (Q92831 whole entry, the tested form may be a part): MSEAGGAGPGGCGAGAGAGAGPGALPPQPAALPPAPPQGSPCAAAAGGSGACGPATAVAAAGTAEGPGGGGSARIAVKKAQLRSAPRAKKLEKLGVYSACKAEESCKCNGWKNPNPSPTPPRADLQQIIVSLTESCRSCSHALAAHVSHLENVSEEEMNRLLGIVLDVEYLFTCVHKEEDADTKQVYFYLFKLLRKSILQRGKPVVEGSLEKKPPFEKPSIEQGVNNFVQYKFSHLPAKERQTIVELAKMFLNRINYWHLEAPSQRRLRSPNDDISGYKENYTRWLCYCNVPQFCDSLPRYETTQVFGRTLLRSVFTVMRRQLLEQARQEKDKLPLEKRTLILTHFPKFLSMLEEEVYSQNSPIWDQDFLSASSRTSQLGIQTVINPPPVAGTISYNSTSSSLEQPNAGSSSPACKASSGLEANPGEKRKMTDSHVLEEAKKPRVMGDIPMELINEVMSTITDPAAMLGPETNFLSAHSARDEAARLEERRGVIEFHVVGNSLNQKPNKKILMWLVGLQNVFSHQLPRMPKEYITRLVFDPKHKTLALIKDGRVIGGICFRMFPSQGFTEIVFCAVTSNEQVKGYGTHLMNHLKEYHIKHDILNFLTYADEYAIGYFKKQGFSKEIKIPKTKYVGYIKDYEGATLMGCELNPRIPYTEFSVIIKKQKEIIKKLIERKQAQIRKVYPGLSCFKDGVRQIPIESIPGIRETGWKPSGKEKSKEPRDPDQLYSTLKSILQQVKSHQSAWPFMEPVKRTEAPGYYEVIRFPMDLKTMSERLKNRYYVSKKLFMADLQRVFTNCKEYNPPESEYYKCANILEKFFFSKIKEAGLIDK

in vitro [1] = test: in vitro; design: species or system CCD841, HEK293; conditions: human, hb2 cells, read-out: HB-2 Cells Viability (%)
in vitro [2] = test: in vitro; design: species or system HB2, HEK293; conditions: human, ccd841 cells
in vitro [3] = test: in vitro; design: species or system HB2, CCD841; conditions: human, hek293 cells

T1 sequence (P02769 whole entry, the tested form may be a part): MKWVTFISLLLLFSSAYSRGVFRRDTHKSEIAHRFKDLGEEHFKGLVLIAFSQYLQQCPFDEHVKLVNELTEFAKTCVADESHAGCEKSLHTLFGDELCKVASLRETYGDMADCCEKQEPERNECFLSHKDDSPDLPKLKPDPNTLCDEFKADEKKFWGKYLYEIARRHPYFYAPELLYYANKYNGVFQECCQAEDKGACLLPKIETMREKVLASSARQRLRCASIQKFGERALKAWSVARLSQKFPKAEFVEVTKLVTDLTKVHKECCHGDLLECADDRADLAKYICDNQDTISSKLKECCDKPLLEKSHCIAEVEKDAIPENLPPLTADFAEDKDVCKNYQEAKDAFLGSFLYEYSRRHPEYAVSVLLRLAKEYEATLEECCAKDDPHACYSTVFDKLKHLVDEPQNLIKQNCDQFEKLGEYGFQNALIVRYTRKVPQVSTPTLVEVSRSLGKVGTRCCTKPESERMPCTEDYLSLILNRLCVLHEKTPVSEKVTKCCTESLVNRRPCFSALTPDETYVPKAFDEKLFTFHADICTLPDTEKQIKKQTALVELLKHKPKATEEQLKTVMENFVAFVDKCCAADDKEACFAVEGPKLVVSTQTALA

SMILES | BSA (BSA) | NNMT (NNMT (hNNMT)) | NUDT7 (NUDT7) | OTUB2 (OTUB2 (OTUB2A)) | PCAF (PCAF) | viability at 48 h, 10 µM (in vitro [1]) | viability at 48 h, 10 µM (in vitro [2]) | viability at 48 h, 10 µM (in vitro [3])
O=C(CCl)N1CCOCC1 [PCM-0102749] | 0 | 0 | 0 | 0 | 0 | 98.7% | 109% | 97.6%
O=C(CCl)N1CCNCC1.O=C(O)C(F)(F)F [PCM-0102476] | 0 | 0 | 0 | 0 | 0 | 101% | 100% | 92.4%
C=CC(=O)NC1CCN(c2ccccc2C(F)(F)F)C1 (stereo not shown) [PCM-0102731] | 0 | 0 | 0 | 0 | 0 | 100% | 104% | 69.7%
O=C(CCl)Nc1cc2ccccc2cc1C(=O)O [PCM-0102311] | 0 | 0.2 | 0.17 | 0.1 | 0 | 105% | 100% | 109%
C=CC(=O)N1CC(c2ccccc2)C2COCCC21 (stereo not shown) [PCM-0102687] | 0 | 0 | 0 | 0 | 0 | 103% | 105% | 114%
C=CC(=O)N1CC(OC(=O)NC(C)C)C1 [PCM-0102728] | 0 | 0 | 0 | 0.18 | 0 | 99.7% | 108% | 110%
O=C(CCl)NC1C2CC3CC(C2)CC1C3 (stereo not shown) [PCM-0102404] | 0 | 0 | 0 | 0.33 | 0 | 63.3% | 68.9% | 90.6%
CN(C)C(=O)CN(C)C(=O)CCl [PCM-0102632] | 0 | 0 | 0 | 0.14 | 0 | 102% | 114% | 89.7%
CC(NC(=O)CCl)c1ccc(Br)cc1 (stereo not shown) [PCM-0102374] | 0 | 0.55 | 0.23 | 0.34 | 0 | 63.8% | 73.1% | 50%
O=C(CCl)Nc1cccc(Cl)c1N1CCOCC1 [PCM-0102893] | 0 | 0.62 | 0.14 | 0 | 0 | 51.2% | 78% | 26.9%
O=C(CCl)NC(=O)Nc1ccc2c(c1)OCCCO2 [PCM-0102910] | 0 | 0.69 | 0 | 0 | 0 | 67.5% | 67.2% | 81%
O=C(CCl)Nc1c(F)cc(F)cc1Br [PCM-0102189] | 0 | 0.11 | 0.1 | 0 | 0 | 79.5% | 59.6% | 72.4%
N#CSc1ccc(NC(=O)CCl)c(Cl)c1 [PCM-0102506] | 0 | 0.38 | 0 | 0 | 0 | 20.6% | 33.4% | 51.9%
C=CC(=O)N1CCC(CN)CC1.Cl [PCM-0102467] | 0 | 0 | 0 | 0 | 0 | 95.4% | 105% | 91%
C=CC(=O)N1CCC(CS(C)(=O)=O)CC1 [PCM-0102651] | 0 | 0 | 0 | 0 | 0 | 105% | 108% | 100%
O=C(CCl)NN1C(=O)NC2(CCCCC2)C1=O [PCM-0102424] | 0 | 0 | 0.06 | 0 | 0 | 95% | 94.7% | 103%
Cl.O=C(CCl)N1CCN(Cc2ccc3c(c2)CCO3)CC1 [PCM-0102814] | 0.11 | 0.24 | 0 | 0 | 0 | 22.2% | 58.5% | 37.6%
C=CC(=O)NC(C)C(=O)N1CCc2ccccc21 (stereo not shown) [PCM-0102486] | 0 | 0 | 0 | 0 | 0 | 99.8% | 89.6% | 99%
CC1(C)C2CCC1(C)C(NC(=O)CCl)C2 (stereo not shown) [PCM-0102315] | 0.12 | 0 | 0 | 0 | 0 | 84.4% | 95% | 75.9%
O=C(CCl)Nc1cc([N+](=O)[O-])ccc1Cl [PCM-0102366] | 0 | 0.51 | 0.2 | 0.27 | 0 | 1.3% | 4.3% | 2.6%

From PMC6556873, “Rapid Covalent-Probe Discovery by Electrophile-Fragment Screening” (Journal of the American Chemical Society, 2019)
